Data set [1] concerns human tumor cell lines (A549, A375, PC-3, U87).
The test system of data set [2] is human colon cancer Ls174T cell line implanted in NIH athymic mice. Nature of the data set: Ls174T colon cancer tumor model in athymic mice. In kind it is in vivo. Conditions: FIG. 19B. The protocol:
The Ls174T colon cancer tumor model in athymic mice was used to evaluate the potential effect of the linear Gly255-Ser274 segment (peptide N06P87), compared to the CIGB370r polypeptide, on human tumor models. Human tumor cells were administered by subcutaneous route, and the molecules of interest or the vehicle were administered by intratumor route (100 μL). After 13 days, when tumors were implanted and palpable, administration schedules started for the molecules of interest (FIG. 8A). The peptide N06P87 was administered in down-scaled doses: two administrations of 600 μM each every 48 h, followed by 4 administrations of 330 μM each every 48 h, and lastly 4 administrations of 90 μM each every 72 h. The CIGB370r peptide was administered weekly for 4 weeks.
The effects of the linear segment Gly255-Ser274 (peptide N06P87) and two other model cyclic peptides of the present invention were compared to the effect of the CIGB370r polypeptide in the Ls174T human colon cancer model in athymic NIH mice, with the dose and schedule shown in FIG. 19. After 13 days, once the tumors were implanted and palpable, biomolecules began to be administered (FIG. 19 A). The peptides were administered in down-scaled doses: 2 administrations of 600 μM every 48 h, followed by 4 administrations of 330 μM each every 48 h, and 4 final 90 μM administrations every 72 h. […]

In another data set the test system is TC-1 tumor. Kind of data set: TC-1 subcutaneous tumor model in C57BL/6 mice. The data set is classed as in vivo. Conditions: 80 μM; for survival: intratumoral route. The protocol:
Six-to-eight weeks-old, C57BL/6 female mice of 22 g of weight were supplied by the National Center for Laboratory Animal Production (CENPALAB, Havana, Cuba) and housed under pathogen-free conditions at the Bioterium of the Center for Genetic Engineering and Biotechnology (CIGB). Experiments were carried out in agreement with regulations for proper handling and care of laboratory animals. Tumor volume was measured on each case (estimated by the formula: volume=a^2×(b/2), where a is the width and b is the length of the tumor) and animal survival was evaluated.
Survival was compared between groups by the Logrank test. The statistic parameters were obtained with the aid of the GraphPad Prism 4.0 software (GraphPad Software, San Diego, Calif., USA).
C57BL/6 mice were injected in the right flank by subcutaneous route (s.c.) with 50 000 TC-1 cells. When tumors were detectable, mice were randomized into treatment groups to evaluate the treatment with the peptides subject of study, to evaluate them by different administration routes. Tumor-bearing animals received 6 administrations in alternate days, with 80 μM of the subject peptide, solely received the vehicle as control. Five mice were used for each group. Animals were housed under pathogen-free conditions, and procedures were conducted in agreement with good practices for laboratory animal handling and care.

[3] abbreviates: peptide combined with prodigiosin.

Structures are written as SMILES. Where two headings read alike, the source gives them in different places. Where a SMILES comes first, the peptide text is derived from it. Bridges are numbered along the chain shown (N, C = ends).

`CC(C)C[C@@H]1NC(=O)[C@H](Cc2ccccc2)NC(=O)[C@H](CC(=O)O)NC(=O)[C@H](CCCNC(=N)N)NC(=O)CNC(=O)[C@H]([C@@H](C)O)NC(=O)[C@H](CC(N)=O)NC(=O)[C@@H](N)CSSC[C@@H](C(N)=O)NC1=O` [Peptide A08P25s-s, CNTGRDFLC] (H-CNTGRDFLC-NH2; disulfide 1-9): the “effect on the cytotoxic activity of prodigiosin” value in data set [1] is “enhanced”. Besides, the GI50 values result in data set [1] (setting [3]) was “nm range”. Moreover, the “T/C values related to the mean tumor volume” value in data set [2] worked out at 35%. In addition, the “decrease of the cytotoxic activity of prodigiosin on primary fibroblasts” value in the data set with primary fibroblasts is reported as “at least one order of magnitude”. In addition, the survival result in the data set on TC-1 tumor is listed as “intermediate survival block”.

For `CC(C)C[C@@H]1NC(=O)[C@H](Cc2ccccc2)NC(=O)[C@H](CC(=O)O)NC(=O)[C@H](CCCNC(=N)N)NC(=O)CNC(=O)[C@H]([C@@H](C)O)NC(=O)[C@H](CC(N)=O)NC(=O)[C@H](CO)NC(=O)[C@H](CC(N)=O)NC(=O)[C@@H](NC(=O)CNC(=O)[C@H](Cc2ccc(O)cc2)NC(=O)[C@@H](NC(=O)[C@@H](NC(=O)[C@H](CC(=O)O)NC(=O)CN)[C@@H](C)O)C(C)C)CSSC[C@@H](C(N)=O)NC(=O)CNC(=O)[C@H]([C@@H](C)O)NC(=O)[C@H](CO)NC1=O` [Peptide J08P48s-s] (H-GDTVYGCNSNTGRDFLSTGC-NH2; disulfide 7-20), in data set [1] (setting [3]), the GI50 values result was “nm range” and the “effect on the cytotoxic activity of prodigiosin” value was “enhanced”. Also, the “T/C values related to the mean tumor volume” value in data set [2] is reported as 35%. In the data set on primary fibroblasts (setting [3]), the “decrease of the cytotoxic activity of prodigiosin on primary fibroblasts” value was “at least one order of magnitude”. Further, the “survival by intratumoral and intraperitoneal routes” value in the data set on TC-1 tumor (i.t. or i.p., FIG. 17) is given as “reproduce the effects observed in this model for the CIGB370r polypeptide”. Further, the survival result with TC-1 tumor was “highest survival block”.

Source of the values: patent publication US9375459B2, “Cyclic peptides with an anti-neoplasic and anti-angiogenic activity” (priority 2011, dated 2016).
